Here are results for three compounds from patent publication US12227769B2 (priority 2018, dated 2025).

Experiment [1] relates to Rous sarcoma virus, HIV-1, RSV, parainfluenza virus type 3, VSV, measles virus, and reovirus. The following applies: shown previously [52, 53, 59]; cited from earlier work.
For experiment [2], the system named is rgRSV or rgRSV-G1857A-G1853A. In kind it is cell-based, RSV A2 strain. The following applies: 50 μg/ml Cc3Ado, day 3.
Experiment [3] concerns rgRSV or rgRSV-G1857A-G1853A. Type of experiment: cell-based, RSV A2 strain. Conditions: 15 μg/ml Cc3Ado; rgRSV and rgRSV-G1853A-G1857A-infected cells; day 3.
In a further experiment the test system is RIG-I. Type of experiment: cell-based, human.
For experiment [4], the target named is T1, Recombinant human RIG-I protein (Homo sapiens, UniProt O95786).
T1 construct: trypsin treatment of the full-length RIG-I protein (approximately 110 kDa) yielded a 55-kDa RIG-I fragment; Flag; made in house; host or cells: HEK-293T
T1 sequence (O95786 1-925): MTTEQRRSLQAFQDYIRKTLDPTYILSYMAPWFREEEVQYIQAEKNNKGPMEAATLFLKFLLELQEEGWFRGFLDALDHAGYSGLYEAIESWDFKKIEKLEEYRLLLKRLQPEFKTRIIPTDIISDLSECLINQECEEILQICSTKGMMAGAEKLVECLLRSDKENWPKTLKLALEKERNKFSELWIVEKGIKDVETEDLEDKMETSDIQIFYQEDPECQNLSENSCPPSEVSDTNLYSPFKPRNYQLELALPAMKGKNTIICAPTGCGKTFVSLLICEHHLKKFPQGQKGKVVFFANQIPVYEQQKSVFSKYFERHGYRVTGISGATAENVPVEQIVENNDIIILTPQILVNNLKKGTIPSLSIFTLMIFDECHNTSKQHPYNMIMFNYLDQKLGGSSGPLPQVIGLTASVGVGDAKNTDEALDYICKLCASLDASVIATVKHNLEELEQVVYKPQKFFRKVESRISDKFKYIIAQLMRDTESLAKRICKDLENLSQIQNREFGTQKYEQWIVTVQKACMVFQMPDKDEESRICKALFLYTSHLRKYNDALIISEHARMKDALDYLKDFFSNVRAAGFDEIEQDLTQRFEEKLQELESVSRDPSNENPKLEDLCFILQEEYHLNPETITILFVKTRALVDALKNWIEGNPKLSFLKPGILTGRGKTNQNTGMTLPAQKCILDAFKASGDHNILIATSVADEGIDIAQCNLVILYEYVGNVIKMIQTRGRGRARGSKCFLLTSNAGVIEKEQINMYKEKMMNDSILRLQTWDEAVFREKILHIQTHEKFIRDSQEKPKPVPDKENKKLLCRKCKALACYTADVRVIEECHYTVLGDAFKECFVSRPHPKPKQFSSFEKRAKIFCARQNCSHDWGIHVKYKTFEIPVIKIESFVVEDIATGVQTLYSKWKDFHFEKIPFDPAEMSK
As to the kind of experiment: Limited trypsin digestion of RIG-I:RNA complexes. The following applies: 2 h trypsin digestion, 2 mM AMP-PNP. In kind it is biochemical.

Take `Nc1nccc2c1ncn2[C@@H]1O[C@H](CO)[C@@H](O)[C@H]1O` [3-deazaadenosine]: in experiment [1], the “inhibition of virus replication” value was “capable of inhibiting the replication of diverse viruses”.
For Carbocyclic 3-deazaadenosine [Cc3Ado], in experiment [2], the “effect on GFP signal in rgRSV-G1853A-G1857A-infected HAE cells” value was “the GFP signal was further reduced”. In addition, the “effect on RSV spread (GFP) in HEp-2 cells” value in experiment [3] is “inhibited rgRSV spread over 3 days”.
As to Poly(I.C), in the experiment with RIG-I, the “expression of RIG-I in RNA-transfected cells” value was “activated RIG-I expression in a dose-dependent manner”. The “trypsin-resistant 80-kDa RIG-I fragment” value in experiment [4] was “yielded an 80-kDa fragment”.
